In the NIST ThermoML archive (doi:10.1021/je101012n):

Test: mn = molality of the nth substance listed, in mol/kg
Conditions: 101 kPa, Liquid, Alternating current cell with electrodes

O=S(=O)([O-])[O-].[K+].[K+] [potassium sulfate] + O
electrical conductivity [S/m]
Conditions	278.15 K	283.15 K	298.15 K	308.15 K	318.15 K	343.15 K	363.15 K
m1 = 0.000102	0.001969	0.002257	0.003175	0.003884	0.004575	0.006401	0.00794
m1 = 0.00105	0.01881	0.02141	0.03006	0.03611	0.04268	0.06018	0.07466
m1 = 0.01061	0.1685	0.1919	0.2675	0.3216	0.3765	0.5269	0.6441
m1 = 0.1048	1.341	1.523	2.11	2.516	2.94	4.064	4.957
m1 = 0.2029	2.362	2.672	3.705	4.409	5.138	7.099	8.722
m1 = 0.4783	5.151	5.78	7.801	9.298	10.8	14.91	17.97

O=C([O-])O.[Na+] [sodium bicarbonate] + O
electrical conductivity [S/m]
Conditions	278.15 K	283.15 K	298.15 K	308.15 K	318.15 K	343.15 K	363.15 K
m1 = 0.00121	0.006911	0.008034	0.01162	0.01437	0.01703	0.02506	0.03284
m1 = 0.01187	0.06467	0.07485	0.1086	0.1346	0.1589	0.234	0.3056
m1 = 0.1223	0.5728	0.6641	0.9598	1.177	1.395	2.044	2.457
m1 = 0.7226	2.634	3.055	4.383	5.346	6.41	9.404	11.39

O=C([O-])[O-].[Na+].[Na+] [sodium carbonate] + O
electrical conductivity [S/m]
Conditions	278.15 K	283.15 K	298.15 K	308.15 K	318.15 K	343.15 K	363.15 K
m1 = 0.000912	0.01348	0.01603	0.02439	0.02888	0.03495	0.05196	0.06513
m1 = 0.01031	0.1285	0.1491	0.2182	0.2684	0.3237	0.4867	0.6187
m1 = 0.09334	0.886	1.024	1.486	1.822	2.182	3.222	4.117
m1 = 0.3041	2.324	2.685	3.893	4.781	5.713	8.362	10.64

[Cl-].[Na+] [sodium chloride] + O
electrical conductivity [S/m]
Conditions	278.15 K	283.15 K	298.15 K	308.15 K	318.15 K	343.15 K	363.15 K
m1 = 0.000104	0.0008271	0.0009431	0.001295	0.00161	0.001893	0.002693	0.003358
m1 = 0.00099	0.007531	0.008619	0.01224	0.01478	0.01747	0.02497	0.03126
m1 = 0.01	0.07349	0.08395	0.1185	0.1425	0.1694	0.2418	0.3029
m1 = 0.1	0.6588	0.7505	1.06	1.277	1.505	2.148	2.691
m1 = 0.5	2.948	3.348	4.652	5.625	6.624	9.35	11.68
m1 = 1	5.444	6.123	8.43	10.19	11.94	16.8	20.94

[F-].[Na+] [sodium fluoride] + O
electrical conductivity [S/m]
Conditions	278.15 K	283.15 K	298.15 K	308.15 K	318.15 K	343.15 K	363.15 K
m1 = 8.8e-05	0.0005802	0.0006955	0.0009523	0.00122	0.001433	0.002014	0.00252
m1 = 0.00092	0.006016	0.006909	0.009683	0.01152	0.01398	0.02009	0.02474
m1 = 0.00878	0.05214	0.05994	0.08551	0.1038	0.1234	0.1798	0.227
m1 = 0.0906	0.4638	0.5338	0.7669	0.9341	1.112	1.621	2.042
m1 = 0.4176	1.917	2.201	3.151	3.824	4.547	6.57	8.137
m1 = 0.8404	3.432	3.915	5.579	6.791	7.478	11.37	14.54

[Na+].[OH-] [sodium hydroxide] + O
electrical conductivity [S/m]
Conditions	278.15 K	283.15 K	298.15 K	308.15 K	318.15 K	343.15 K	363.15 K
m1 = 0.001	0.01671	0.01919	0.02459	0.02833	0.03327	0.04401	0.05213
m1 = 0.01	0.1596	0.1793	0.2414	0.2784	0.3201	0.4294	0.5115
m1 = 0.1	1.498	1.677	2.251	2.635	3.026	4.062	4.861
m1 = 0.5	6.639	7.417	9.875	11.59	13.25	17.72	20.63
m1 = 1	12.13	13.5	18.01	21.19	24.38	32.74	36.66

O=S(=O)([O-])[O-].[Na+].[Na+] [sodium sulfate] + O
electrical conductivity [S/m]
Conditions	278.15 K	283.15 K	298.15 K	308.15 K	318.15 K	343.15 K	363.15 K
m1 = 0.0001	0.001565	0.001807	0.002576	0.003181	0.003786	0.005401	0.00676
m1 = 0.001	0.01463	0.0168	0.02415	0.0292	0.03475	0.05015	0.0633
m1 = 0.01	0.1296	0.1488	0.2128	0.2575	0.3049	0.4381	0.5474
m1 = 0.1001	1	1.148	1.639	1.986	2.347	3.347	4.17
m1 = 0.1989	1.756	2.022	2.882	3.508	4.153	5.946	7.43
m1 = 0.4999	3.383	3.854	5.47	6.708	7.954	11.39	13.7

[Cl-].[Cl-].[Sr+2] [strontium chloride] + O
electrical conductivity [S/m]
Conditions	278.15 K	283.15 K	298.15 K	308.15 K	318.15 K	343.15 K	363.15 K
m1 = 0.000125	0.002084	0.002384	0.003331	0.003972	0.004689	0.00678	0.00842
m1 = 0.00141	0.02222	0.02538	0.03603	0.04353	0.05151	0.07369	0.09235
m1 = 0.012	0.1807	0.2072	0.2926	0.3531	0.4164	0.5927	0.7383
m1 = 0.1313	1.663	1.892	2.646	3.174	3.719	5.229	6.184
m1 = 0.3891	4.194	4.751	6.457	7.797	9.074	12.51	15.38

O=S(=O)(O)O [sulfuric acid] + O
electrical conductivity [S/m]
Conditions	278.15 K	283.15 K	298.15 K	308.15 K	318.15 K	343.15 K	363.15 K
m1 = 9.4e-05	0.005493	0.006105	0.007827	0.008931	0.009949	0.01221	0.01367
m1 = 0.000936	0.05201	0.05749	0.07292	0.08174	0.09001	0.1026	0.1058
m1 = 0.00944	0.4321	0.4729	0.5772	0.6319	0.6759	0.7372	0.7698
m1 = 0.09223	3.12	3.444	4.13	4.525	4.885	5.575	6.159
m1 = 0.4664	13.46	14.5	17.37	19.34	20.96	25.62	28.05
